Data set [1] deals with T1, full-length human GCN2 enzyme (Homo sapiens, UniProt Q9P2K8).
T1 construct: purchased Carna Bioscience
As to the kind of experiment: GCN2 enzyme inhibition, LanthaScreen TR-FRET Kinase Activity assay (10 μM and 300 μM ATP). The class given is biochemical. The following applies: mean of replicate assays. As for the experimental part:
Biological and Pharmacokinetic Testing (a) GCN2 Enzyme Inhibition (10 μM and 300 μM Assays) Assay Protocol Overview:
The inhibitory activity of the Example compounds towards GCN2 enzyme was measured according to the description below, using a LanthaScreen TR-FRET (Time Resolved Fluorescence Resonance Energy Transfer) Kinase Activity assay distributed by ThermoFisher Scientific.
The full-length human GCN2 enzyme (UniProt accession number Q9P2K8) was used for all experiments (Carna Bioscience). The TR-FRET pair was composed of GFP-eIF2α and LanthaScreen Terbium-labeled anti-peIF2α (pSer52) Antibody.
Each example compound was dissolved in DMSO (0.15 mM) and dispensed in a 384-well plate by a D300 dispenser (Tecan) to a final concentration range 3000-0.13 nM using the logarithmic dilution mode in 2 replicates. Full inhibition (3000 nM commercial reference inhibitor) and DMSO vehicle control wells were also included on the same plate. All volumes were normalized to the final DMSO concentration of 2% of the reaction volume. Next, 5 μL of H2O was added to each well of the plate.
The enzyme mixture was prepared to obtain the following concentrations: • GCN2—30 nM • unloaded tRNA—0.3 nM • HEPES (pH=7.0)—100 mM • MgCl2—20 mM; MnCl2—10 mM
The mixture was applied by adding 5 μL to each well of the plate. The enzyme and the tested compound were then incubated at room temperature for 20 min while shaking at 450 rpm.
The substrate mixture was prepared to obtain the following concentrations: • GFP-eIF2α—240 nM • ATP—900 μM or 30 μM • HEPES (pH=7.0)—50 mM • MgCl2—10 mM • MnCl2—5 mM.
The mixture was applied by adding 5 μL to each well of the plate. Thus, the final concentrations of the 15 μL reaction mixture were as follows: • GCN2—10 nM • unloaded tRNA—0.1 nM • GFP-eIF2α—80 nM • ATP—300 μM or 10 μM • HEPES (1 M, pH=7.0)—50 mM • MgCl2—10 mM • MnCl2—5 mM.
The reaction was allowed to proceed at room temperature for 30 min while shaking at 450 rpm.
The antibody mixture was prepared to obtain the following concentrations: • Na2EDTA·2H2O—40 mM, in TR-FRET Dilution Buffer (Life technologies) • Tb—anti-peIF2a antibodies—4 nM.
The mixture was applied by adding 15 μL to each well. The plate was then incubated at room temperature for 60 min while shaking at 450 rpm and then read using Tecan Spark reader using specific TR-FRET filters.
The analysis of the GFP/Tb fluorescence results was conducted with GraphPad Prism to determine IC50 for each of the example compounds using 4-parameter model: log(inhibitor) vs. response-variable slope. IC50 and K, values were calculated in the usual way. The assay was carried out between 1 and 15 times. The results in the table below are the mean results from replicate assays for the compound in question, where applicable.

Data set [2] is described as follows: Kinetic solubility in PBS buffer pH 7.4. The settings on record: aqueous buffer, kinetic from dmso stock; PBS buffer pH 7.4, 90 minutes at room temperature, from 10 mM DMSO stock. The format is physicochemical. The protocol:
The kinetic solubility assay investigates a solubility based on the amount of material which remains in solution after a precipitation process. […] Assay is performed using Multiscreen Vacuum Manifold. A buffer of interest (in standard protocol PBS buffer at pH=7.4 is used) is spiked with stock solution and incubated for 90 minutes at room temperature. After that time solution/suspension is filtrated. The concentration of each compound is determined on the base of prepared calibration curve using UV-VIS spectrophotometry method. The assay is made in triplicate.
Buffer of interest: 0.24 g of KH2PO4, 1.44 g of Na2HPO4, 0.2 g of KCl and 8 g NaCl and dissolve in 1 L distilled H2O; adjust pH to appropriate value (pH 7.4). 190 μl of buffer of interest was dispensed into the wells of a 96 well filter plate, followed by 10 μl of compound (10 mM stock solution in DMSO). The plate was shaken gently at room temperature for 90 minutes at 500 rpm using a BioSan, Plate Shaker-Thermostat, PST-60 HL-4. After 90 minutes, the plate was filtered using a vacuum manifold and vacuum pump. 100 μl of each filtrate and 100 μl acetonitrile was transferred to a 96 well UV-visible light transparent plate and the UV-visible absorption spectrum was measured using a Biotek Synergy 2 multiplate reader from 250-500 nm, interval range 10 nm. The amount of test compound was calculated using a calibration curve prepared by serial dilution of compounds in equivalent amounts of DMSO and acetonitrile.

[3] abbreviates: read-out: GCN2 IC50 (nM) 300 uM ATP, 300 uM ATP.
Where [4] appears, read: read-out: GCN2 Ki (nM) 300 uM ATP, 300 uM ATP.
Setting [5] is: read-out: GCN2 IC50 (nM) 10 uM ATP, 10 uM ATP.
The mark [6] stands for this setting: read-out: GCN2 Ki (nM) 10 uM ATP, 10 uM ATP.

Read-outs that look alike come from different tables or passages of the source.

T1 sequence (Q9P2K8 whole entry): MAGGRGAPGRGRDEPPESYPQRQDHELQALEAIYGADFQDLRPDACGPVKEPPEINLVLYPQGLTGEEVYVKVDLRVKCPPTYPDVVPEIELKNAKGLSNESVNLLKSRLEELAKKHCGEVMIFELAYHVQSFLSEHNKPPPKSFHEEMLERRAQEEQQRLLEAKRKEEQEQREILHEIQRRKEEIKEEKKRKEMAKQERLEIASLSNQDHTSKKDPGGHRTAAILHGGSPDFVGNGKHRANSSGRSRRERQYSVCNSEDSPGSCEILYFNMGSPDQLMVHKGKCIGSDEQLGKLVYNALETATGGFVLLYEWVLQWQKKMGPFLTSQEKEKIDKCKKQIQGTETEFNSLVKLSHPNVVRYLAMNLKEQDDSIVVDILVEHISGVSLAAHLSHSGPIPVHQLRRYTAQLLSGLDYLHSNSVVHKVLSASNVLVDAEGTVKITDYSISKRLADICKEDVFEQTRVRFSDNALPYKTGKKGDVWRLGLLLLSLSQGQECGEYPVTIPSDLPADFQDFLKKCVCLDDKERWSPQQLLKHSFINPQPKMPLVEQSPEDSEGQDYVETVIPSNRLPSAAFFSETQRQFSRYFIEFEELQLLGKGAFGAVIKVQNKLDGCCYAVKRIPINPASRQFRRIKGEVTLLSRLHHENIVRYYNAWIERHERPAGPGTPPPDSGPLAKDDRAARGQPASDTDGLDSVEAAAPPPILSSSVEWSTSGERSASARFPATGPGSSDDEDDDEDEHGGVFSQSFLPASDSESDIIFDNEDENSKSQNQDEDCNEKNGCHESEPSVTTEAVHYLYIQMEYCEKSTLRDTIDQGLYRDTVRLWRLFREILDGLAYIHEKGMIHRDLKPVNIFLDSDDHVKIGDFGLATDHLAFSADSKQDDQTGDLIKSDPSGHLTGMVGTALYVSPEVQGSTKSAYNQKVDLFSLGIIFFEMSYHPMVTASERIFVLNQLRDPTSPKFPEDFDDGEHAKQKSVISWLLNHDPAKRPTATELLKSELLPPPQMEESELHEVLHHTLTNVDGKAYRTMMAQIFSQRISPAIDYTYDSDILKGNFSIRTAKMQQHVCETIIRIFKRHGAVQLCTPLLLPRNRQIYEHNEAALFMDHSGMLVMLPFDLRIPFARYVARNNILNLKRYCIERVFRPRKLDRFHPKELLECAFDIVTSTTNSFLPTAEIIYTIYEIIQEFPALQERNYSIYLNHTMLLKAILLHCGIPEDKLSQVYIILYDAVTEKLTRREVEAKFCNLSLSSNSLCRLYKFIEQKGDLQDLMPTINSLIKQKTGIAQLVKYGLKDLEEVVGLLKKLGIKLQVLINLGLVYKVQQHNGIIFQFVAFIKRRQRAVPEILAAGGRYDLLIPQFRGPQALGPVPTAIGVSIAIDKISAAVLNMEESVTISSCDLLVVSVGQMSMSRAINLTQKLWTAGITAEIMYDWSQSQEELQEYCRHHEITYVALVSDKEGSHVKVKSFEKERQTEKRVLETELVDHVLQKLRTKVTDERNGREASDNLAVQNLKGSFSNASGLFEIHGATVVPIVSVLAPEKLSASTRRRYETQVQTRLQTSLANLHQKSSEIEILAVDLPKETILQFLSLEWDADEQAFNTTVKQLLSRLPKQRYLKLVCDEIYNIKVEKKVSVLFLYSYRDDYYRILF

Turning to `COc1nc(N)ncc1C#Cc1ccnc(NS(=O)(=O)c2cc(Cl)cnc2OC)c1F` [Example 35, N-{4-[2-(2-amino-4-methoxypyrimidin-5-yl)ethynyl]-3-fluoropyridin-2-yl}-5-chloro-2-methoxypyridine-3-sulfonamide], the IC50 in data set [1] (setting [3]) stood at 328 nM. In addition, the Ki in data set [1] (setting [4]) is 5 nM.

Take `Nc1ncc(C#Cc2ccnc(NS(=O)(=O)c3cc(Cl)cc(CO)c3Cl)c2F)cn1` [Example 16, N-{4-[2-(2-aminopyrimidin-5-yl)ethynyl]-3-fluoropyridin-2-yl}-2,5-dichloro-3-(hydroxymethyl)benzene-1-sulfonamide]: in data set [2], the kinetic solubility at 90 min was determined as 218 µg/mL. Also, the IC50 in data set [1] (setting [3]) is 111 nM. In addition, the Ki in data set [1] (setting [4]) stood at 1.7 nM.

As for `CNc1ncc(C#Cc2ccnc(NS(=O)(=O)c3cc(Cl)cnc3OC)c2F)cn1` [Example 25, 5-chloro-N-(3-fluoro-4-{2-[2-(methylamino)pyrimidin-5-yl]ethynyl}pyridin-2-yl)-2-methoxypyridine-3-sulfonamide], in data set [2], the solubility (kinetic) at 90 min stood at 208 µg/mL. In addition, in data set [1] (setting [3]), the IC50 came out at 110 nM. For the same compound, the Ki in data set [1] (setting [4]) was 1.7 nM.

Regarding `COc1ncc(Cl)cc1S(=O)(=O)Nc1nccc(C#Cc2cnn3c(N)ccnc23)c1F` [Example 7, N-{4-[2-(7-aminopyrazolo[1,5-a]pyrimidin-3-yl)ethynyl]-3-fluoropyridin-2-yl}-5-chloro-2-methoxypyridine-3-sulfonamide], the kinetic solubility at 90 min in data set [2] was 216 µg/mL. Moreover, the IC50 came out at 7.9 nM in data set [1] (setting [5]) and 105 nM in data set [1] (setting [3]). Further, the Ki in data set [1] (setting [6]) was determined as 2.5 nM; in data set [1] (setting [4]), 1.6 nM.

Turning to `COc1ncc(Cl)cc1S(=O)(=O)Nc1nccc(C#Cc2cnc3[nH]ncc3n2)c1F` [Example 27, 5-chloro-N-[3-fluoro-4-(2-{1H-pyrazolo[3,4-b]pyrazin-5-yl}ethynyl)pyridin-2-yl]-2-methoxypyridine-3-sulfonamide], the kinetic solubility at 90 min in data set [2] was determined as 225 µg/mL. Moreover, in data set [1] (setting [3]), the IC50 was 225 nM. Also, in data set [1] (setting [4]), the Ki was 3.4 nM.

For the compound `COc1ncc(Cl)cc1S(=O)(=O)Nc1nccc(C#Cc2cnc3[nH]nc(OC)c3c2)c1F` [Example 37, 5-chloro-N-[3-fluoro-4-(2-{3-methoxy-1H-pyrazolo[3,4-b]pyridin-5-yl}ethynyl)pyridin-2-yl]-2-methoxypyridine-3-sulfonamide], the kinetic solubility at 90 min in data set [2] was greater than 244 µg/mL. In addition, the IC50 in data set [1] (setting [3]) came to 20.9 nM. Further, the Ki in data set [1] (setting [4]) was found to be 0.3 nM.

`COc1ncc(Cl)cc1S(=O)(=O)Nc1nccc(C#Cc2cncc3cnn(C)c23)c1F` [Example 24, 5-chloro-N-[3-fluoro-4-(2-{1-methyl-1H-pyrazolo[4,3-c]pyridin-7-yl}ethynyl)pyridin-2-yl]-2-methoxypyridine-3-sulfonamide]: the kinetic solubility at 90 min in data set [2] was determined as 80.3 µg/mL. For the same compound, the IC50 in data set [1] (setting [3]) was determined as 169 nM. Also, in data set [1] (setting [4]), the Ki stood at 2.6 nM.

For `COc1ncc(Cl)cc1S(=O)(=O)Nc1nccc(C#Cc2cnc3[nH]c(=O)n(C)c3c2)c1F` [Example 36, 5-chloro-N-[3-fluoro-4-(2-{1-methyl-2-oxo-1H,2H,3H-imidazo[4,5-b]pyridin-6-yl}ethynyl)pyridin-2-yl]-2-methoxypyridine-3-sulfonamide], in data set [2], the solubility (kinetic) at 90 min was found to be 240 µg/mL. For the same compound, in data set [1] (setting [3]), the IC50 stood at 182 nM. Also, in data set [1] (setting [4]), the Ki is 2.8 nM.

On to `O=S(=O)(Nc1nccc(C#Cc2cnc3[nH]ncc3c2)c1F)c1cc(Cl)ccc1Cl` [Example 14, 2,5-dichloro-N-[3-fluoro-4-(2-{1H-pyrazolo[3,4-b]pyridin-5-yl}ethynyl)pyridin-2-yl]benzene-1-sulfonamide], for which the kinetic solubility at 90 min in data set [2] was found to be 24.7 µg/mL. Also, the IC50 in data set [1] (setting [3]) amounted to 236 nM. For the same compound, in data set [1] (setting [4]), the Ki came to 3.6 nM.

In the case of `COc1ncc(Cl)cc1S(=O)(=O)Nc1nccc(C#Cc2cncc3nn(C)cc23)c1F` [Example 22, 5-chloro-N-[3-fluoro-4-(2-{2-methyl-2H-pyrazolo[3,4-c]pyridin-4-yl}ethynyl)pyridin-2-yl]-2-methoxypyridine-3-sulfonamide], in data set [2], the kinetic solubility at 90 min worked out at 229 µg/mL. For the same compound, the IC50 in data set [1] (setting [3]) was determined as 98.6 nM. The Ki in data set [1] (setting [4]) turned out to be 1.5 nM.

For the compound `COc1ncc(Cl)cc1S(=O)(=O)Nc1nccc(C#Cc2cnc3ccccc3n2)c1F` [Example 9, 5-chloro N-{4-[2-(quinoxalin-2-yl)ethynyl]-3-fluoropyridin-2-yl}-2-methoxypyridine-3-sulfonamide], the kinetic solubility at 90 min in data set [2] was 134 µg/mL. In addition, the IC50 in data set [1] (setting [5]) came to 7.5 nM; in data set [1] (setting [3]), 112 nM. In addition, the Ki in data set [1] (setting [6]) turned out to be 2.4 nM; in data set [1] (setting [4]), 1.7 nM.

As for `COc1ncc(Cl)cc1S(=O)(=O)Nc1ncc(F)c(C#Cc2cnc(N)nc2)c1F` [Example 10, N-{4-[2-(2-aminopyrimidin-5-yl)ethynyl]-3,5-difluoropyridin-2-yl}-5-chloro-2-methoxypyridine-3-sulfonamide], in data set [2], the kinetic solubility at 90 min came to 138 µg/mL.

As to `COc1ccc(Cl)cc1S(=O)(=O)Nc1nccc(C#Cc2cnc(N)nc2)c1F` [Example 13, N-{4-[2-(2-aminopyrimidin-5-yl)ethynyl]-3-fluoropyridin-2-yl}-5-chloro-2-methoxybenzene-1-sulfonamide], the kinetic solubility at 90 min in data set [2] was found to be 109 µg/mL. Also, the IC50 in data set [1] (setting [3]) stood at 611 nM. Moreover, the Ki in data set [1] (setting [4]) worked out at 9.3 nM.

For `COc1ncc(Cl)cc1S(=O)(=O)Nc1nccc(C#Cc2cnc3ccnn3c2)c1F` [Example 30, 5-chloro-N-[3-fluoro-4-(2-{pyrazolo[1,5-a]pyrimidin-6-yl}ethynyl)pyridin-2-yl]-2-methoxypyridine-3-sulfonamide], in data set [2], the solubility (kinetic) at 90 min was greater than 245 µg/mL. The IC50 in data set [1] (setting [3]) stood at 160 nM. For the same compound, in data set [1] (setting [4]), the Ki was determined as 2.4 nM.

As to `O=S(=O)(Nc1nccc(C#Cc2cnc3[nH]ncc3c2)c1F)c1cc(Cl)cc(CO)c1Cl` [Example 17, 2,5-dichloro-N-[3-fluoro-4-(2-{1H-pyrazolo[3,4-b]pyridin-5-yl}ethynyl)pyridin-2-yl]-3-(hydroxymethyl)benzene-1-sulfonamide], in data set [2], the kinetic solubility at 90 min was determined as 250 µg/mL. For the same compound, in data set [1] (setting [3]), the IC50 came out at 59 nM. Further, in data set [1] (setting [4]), the Ki came out at 0.9 nM.

In the case of `COc1ncc(Cl)cc1S(=O)(=O)Nc1nccc(C#Cc2cnc3[nH]nc(C)c3c2)c1F` [Example 33, 5-chloro-N-[3-fluoro-4-(2-{3-methyl-1H-pyrazolo[3,4-b]pyridin-5-yl}ethynyl)pyridin-2-yl]-2-methoxypyridine-3-sulfonamide], the kinetic solubility at 90 min in data set [2] stood at 245 µg/mL. The results for the IC50 in data set [1] (setting [5]) and in data set [1] (setting [3]) were 4.2 nM and 21.7 nM, respectively. For the same compound, the Ki is 1.3 nM in data set [1] (setting [6]) and 0.3 nM in data set [1] (setting [4]).

Turning to `COc1ncc(Cl)cc1S(=O)(=O)Nc1nccc(C#Cc2cnc(N)nc2C)c1F` [Example 34, N-{4-[2-(2-amino-4-methylpyrimidin-5-yl)ethynyl]-3-fluoropyridin-2-yl}-5-chloro-2-methoxypyridine-3-sulfonamide], the kinetic solubility at 90 min in data set [2] came to 238 µg/mL. The IC50 in data set [1] (setting [3]) came to 658 nM. Also, in data set [1] (setting [4]), the Ki turned out to be 10 nM.

Usually IC50 stands for the concentration that gives 50% inhibition. As usually defined, the Ki is a dissociation constant, usually derived from enzyme kinetics or from competition with a known ligand. As usually defined, the solubility (kinetic) is the concentration staying in solution when a stock, usually in DMSO, is diluted into the medium.

These data come from patent publication US11945799B2, “4-ethynylpyridine derivatives useful as GCN2 inhibitors” (IP2IPO INNOVATIONS LIMITED, priority 2020, dated 2024).
